For data set [1] the following is noted: rcm bond.
Data set [2] has as its system interferon production in human PBMC. In words: Interferon production in human PBMC, read out on HEK-ISRE-luc reporter cells. It counts as cell-based. The settings on record: Homo sapiens, PBMC, 24 h, lowest effective concentration, PBMC supernatant after overnight incubation transferred to HEK-ISRE-luc cells, read-out: PBMC HEK-ISRE-luc (LEC; μM). As to the method: Activation of human TLR7 results in robust production of interferon by plasmacytoid dendritic cells present in human blood. The potential of compounds to induce interferon was evaluated by determination of interferon in the conditioned media from peripheral blood mononuclear cells (PBMC). The presence of interferon in the samples was determined, using an interferon reporter cell line stably expressing an interferon-stimulated responsive elements (ISRE)-luc reporter construct. The ISRE element with sequence GAAACTGAAACT (SEQ ID: 1) is highly responsive to the STAT1-STAT2-IRF9 transcription factor, which becomes activated upon binding of IFN-I to the IFN receptor. Briefly, PBMCs were prepared from buffy coats of at least two donors using a standard Ficoll centrifugation protocol. Isolated PBMCs were resuspended in RPMI medium supplemented with 10% human AB serum and 2×10^5 cells/well were dispensed into 384-well plates containing compounds (70 μL total volume). After overnight incubation of the PBMCs with the compounds, 10 μL of supernatant was transferred to 384-well plates containing 5×10^3 HEK-ISRE-luc cells/well in 30 μL (plated the day before). Following 24 hours of incubation, activation of the ISRE elements was measured by assaying luciferase activity using 40 μL/well Steady Lite Plus substrate (Perkin Elmer) and measured with ViewLux ultraHTS microplate imager (Perkin Elmer). The stimulating activity of each compound on the HEK-ISRE-luc cells was reported as LEC. The LEC in turn indicates the degree of ISRE activation on transfer of a defined amount of PBMC culture medium. Recombinant interferon alfa-2a (Roferon-A) was used as a standard control compound.

The next data set concerns the target T1, human TLR7 (Homo sapiens, UniProt Q9NYK1).
T1 construct: expressed in transfected cells; host or cells: HEK293
T1 sequence (Q9NYK1 27-1049): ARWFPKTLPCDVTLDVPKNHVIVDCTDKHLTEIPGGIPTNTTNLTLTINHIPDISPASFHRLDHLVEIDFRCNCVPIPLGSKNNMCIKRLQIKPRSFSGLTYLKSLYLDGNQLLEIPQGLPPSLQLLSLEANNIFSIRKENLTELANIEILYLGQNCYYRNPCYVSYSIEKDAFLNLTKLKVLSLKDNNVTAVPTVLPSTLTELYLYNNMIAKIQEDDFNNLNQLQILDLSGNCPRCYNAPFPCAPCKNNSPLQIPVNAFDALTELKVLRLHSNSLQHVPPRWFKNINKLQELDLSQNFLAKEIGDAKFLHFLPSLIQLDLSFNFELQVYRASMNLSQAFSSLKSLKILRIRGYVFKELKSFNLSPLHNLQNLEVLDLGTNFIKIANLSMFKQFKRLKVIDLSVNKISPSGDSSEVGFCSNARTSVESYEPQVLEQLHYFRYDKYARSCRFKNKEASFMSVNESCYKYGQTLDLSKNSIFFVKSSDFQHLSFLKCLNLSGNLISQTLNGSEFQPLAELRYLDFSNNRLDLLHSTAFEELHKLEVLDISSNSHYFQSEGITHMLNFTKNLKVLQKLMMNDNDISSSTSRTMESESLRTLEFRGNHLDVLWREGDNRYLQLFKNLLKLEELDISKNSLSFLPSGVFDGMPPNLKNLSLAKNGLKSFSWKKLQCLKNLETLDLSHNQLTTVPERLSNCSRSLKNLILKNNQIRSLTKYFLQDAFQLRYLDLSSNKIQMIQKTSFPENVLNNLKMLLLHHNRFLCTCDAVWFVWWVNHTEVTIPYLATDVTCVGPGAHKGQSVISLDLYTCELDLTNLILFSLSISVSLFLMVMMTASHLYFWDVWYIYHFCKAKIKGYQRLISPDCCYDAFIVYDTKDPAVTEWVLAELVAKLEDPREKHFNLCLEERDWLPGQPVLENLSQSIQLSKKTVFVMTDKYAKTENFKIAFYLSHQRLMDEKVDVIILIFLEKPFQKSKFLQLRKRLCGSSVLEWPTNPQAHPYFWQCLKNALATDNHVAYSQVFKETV
The experiment in a line: TLR7 cellular reporter assay (HEK293 TLR7-NFκB-luc). It counts as cell-based. The settings on record: lowest effective concentration; HEK293 transiently transfected with TLR7 and NFκB-luc; 6 hours incubation. The procedure:
The ability of compounds to activate human TLR7 and TLR8 was assessed in a cellular reporter assay using HEK293 cells transiently transfected with a TLR7 or TLR8 expression vector and NFκB-luc reporter construct. Briefly, HEK293 cells were grown in culture medium (DMEM supplemented with 10% FCS and 2 mM Glutamine). For transfection of cells in 10 cm dishes, cells were detached with Trypsin-EDTA, transfected with a mix of CMV-TLR7 or TLR8 plasmid (750 ng), NFκB-luc plasmid (375 ng) and a transfection reagent and incubated 48 hours at 37° C. in a humidified 5% CO2 atmosphere. Transfected cells were then detached with Trypsin-EDTA, washed in PBS and resuspended in medium to a density of 1.67×10^5 cells/mL. Thirty microliters of cells were then dispensed into each well in 384-well plates, where 10 μL of compound in 4% DMSO was already present. Following 6 hours incubation at 37° C., 5% CO2, the luciferase activity was determined by adding 15 μl of Steady Lite Plus substrate (Perkin Elmer) to each well and readout performed on a ViewLux ultraHTS microplate imager (Perkin Elmer). Dose response curves were generated from measurements performed in quadruplicates. Lowest effective concentrations (LEC) values, defined as the concentration that induces an effect which is at least two fold above the standard deviation of the assay, were determined for each compound.
On the technique in general: In a reporter assay the amount or activity of a reporter protein is the signal.

Like-named read-outs stand apart in the source and are kept apart here.

As for `CCOC(=O)N1CCc2cccc(c2)OCC=CCCOc2nc(N)c([N+](=O)[O-])c1n2`, in data set [1] (from C=CCCOc1nc(N)c([N+](=O)[O-])c(N(CCc2cccc(OCC=C)c2)C(=O)OCC)n1, Grubbs catalyst 2nd generation, CH2Cl2, 5.2 mM, 25.0 °C, 7.0 h), the ring closure, yield of all isomers is 52%.

`CCOC(=O)N1Cc2cc(OC)cc(c2)OCC=CCOc2nc(N)c([N+](=O)[O-])c1n2` came in with a ring closure, yield of all isomers in data set [1] (from C=CCOc1cc(CN(C(=O)OCC)c2nc(OCC=C)nc(N)c2[N+](=O)[O-])cc(OC)c1, Grubbs-Hoveyda catalyst 2nd generation (with chlorodicyclohexylborane), 1,2-dichloroethane, 3.63 mM, 120.0 °C, 18.0 h) of 27%.

`CCOC(=O)N1Cc2cccc(c2)CC=CCCC(CO[Si](C)(C)C(C)(C)C)Nc2nc(N)c([N+](=O)[O-])c1n2` (stereo not shown) displayed a ring closure, yield of all isomers in data set [1] (from C=CCCC(CO[Si](C)(C)C(C)(C)C)Nc1nc(N)c([N+](=O)[O-])c(N(Cc2cccc(CC=C)c2)C(=O)OCC)n1, Grubbs catalyst 2nd generation, CH2Cl2, 7.83 mM, 25.0 °C, 24.0 h) of 70%.

In data set [1] (from C=CCCCOc1nc(N)c([N+](=O)[O-])c(N(Cc2cccc(CC=C)c2)C(=O)OCC)n1, Grubbs catalyst 2nd generation, CH2Cl2, 3.13 mM, 25.0 °C, 2.0 h), `CCOC(=O)N1Cc2cccc(c2)CC=CCCCOc2nc(N)c([N+](=O)[O-])c1n2` had a ring closure, yield of all isomers of 73%.

`CCOC(=O)N1Cc2cccc(c2)CC=CCCOc2nc(N)c([N+](=O)[O-])c1n2` gave a ring closure, yield of all isomers in data set [1] (from C=CCCOc1nc(N)c([N+](=O)[O-])c(N(Cc2cccc(CC=C)c2)C(=O)OCC)n1, Grubbs catalyst 2nd generation, CH2Cl2, 3.14 mM, 25.0 °C, 16.0 h) of 27.4%.

Compound `CCOC(=O)N1Cc2ncccc2OCC=CCCOc2nc(N)c([N+](=O)[O-])c1n2` yielded a ring closure, yield of all isomers in data set [1] (from C=CCCOc1nc(N)c([N+](=O)[O-])c(N(Cc2ncccc2OCC=C)C(=O)OCC)n1, Hoveyda-Grubbs 2nd generation (with chlorodicyclohexylborane), 1,2-dichloroethane, 3.74 mM, 80.0 °C, 1.0 h) of 70%.

For `CCOC(=O)N1Cc2ncccc2OCCC=CCOc2nc(N=P(c3ccccc3)(c3ccccc3)c3ccccc3)c([N+](=O)[O-])c1n2`, the ring closure, yield of all isomers in data set [1] (from C=CCCOc1cccnc1CN(C(=O)OCC)c1nc(OCC=C)nc(N=P(c2ccccc2)(c2ccccc2)c2ccccc2)c1[N+](=O)[O-], Hoveyda-Grubbs 2nd generation (with chlorodicyclohexylborane), 1,2-dichloroethane, 2.98 mM, 120.0 °C, 31.0 h) stood at 54%.

`CCOc1nc2c(N)nc3nc2n1Cc1cccc(c1)CC=CCCCn1ccnc1-3` gave a ring closure, yield of all isomers in data set [1] (from C=CCCCn1ccnc1-c1nc(N)c2nc(OCC)n(Cc3cccc(CC=C)c3)c2n1, Grubbs catalyst 2nd generation, CH2Cl2, 3.76 mM, 25.0 °C, 24.0 h) of 5%.

In data set [1] (from C=CCCOc1nc(N)c2nc(OC)n(Cc3cccc(CC=C)c3)c2n1, Grubbs catalyst 2nd generation, CH2Cl2, 3.42 mM, 24.0 h), `COc1nc2c(N)nc3nc2n1Cc1cccc(c1)CC=CCCO3` yielded a ring closure, yield of all isomers of 23%.

Compound `Nc1nc2nc3c1ncn3Cc1cccc(c1)CC=CCCO2` showed a ring closure, yield of all isomers in data set [1] (from C=CCCOc1nc(N)c2ncn(Cc3cccc(CC=C)c3)c2n1, Hoveyda-Grubbs 2nd generation (with chlorodicyclohexylborane), 1,2-dichloroethane, 2.98 mM, 120.0 °C, 23.0 h) of 34%.

On to `Nc1nc2nc3c1ncn3Cc1ncccc1OCC=CCCO2`, for which the ring closure, yield of all isomers in data set [1] (from C=CCCOc1nc(N)c2ncn(Cc3ncccc3OCC=C)c2n1, Grubbs-Hoveyda catalyst 2nd generation (with chlorodicyclohexylborane), 1,2-dichloroethane, 3.04 mM, 120.0 °C, 10.0 h) is 5%.

As for `COc1ccc2cc1Cn1c(O)nc3c(N)nc(nc31)OCCCCC2` [Compound 69], the minimal effective concentration in data set [2] was 0.039 µM. Besides, the “HEK293 TLR7-NFκB-luc (LEC; μM)” value at human TLR7 was found to be 0.2 µM.

Regarding `COc1ccc2cc1Cn1c(O)nc3c(N)nc(nc31)OCCCCO2` [Compound 70], in data set [2], the minimal effective concentration was determined as 0.04 µM. Besides, the “HEK293 TLR7-NFκB-luc (LEC; μM)” value on human TLR7 was 0.15 µM.

`CC1CCOc2cccc(c2)Cn2c(O)nc3c(N)nc(nc32)OC1` (stereo not shown) [Compound 71]: the minimal effective concentration in data set [2] came out at 0.04 µM. For the same compound, the “HEK293 TLR7-NFκB-luc (LEC; μM)” value on human TLR7 turned out to be 0.12 µM.

Regarding `COc1ccc2cc1Cn1c(O)nc3c(N)nc(nc31)OCC/C=C\C2` [Compound 72], the minimal effective concentration in data set [2] came out at 0.0029 µM. Moreover, the “HEK293 TLR7-NFκB-luc (LEC; μM)” value at human TLR7 came out at 0.018 µM.

With `COc1ccc2cc1Cn1c(O)nc3c(N)nc(nc31)OCC/C=C/C2` [Compound 73], the minimal effective concentration in data set [2] was determined as 0.01 µM. The “HEK293 TLR7-NFκB-luc (LEC; μM)” value on human TLR7 was 0.045 µM.

Consider `COc1ccc2cc1Cn1c(O)nc3c(N)nc(nc31)OC/C=C\CO2` [Compound 74], for which the minimal effective concentration in data set [2] was 0.044 µM. Moreover, the “HEK293 TLR7-NFκB-luc (LEC; μM)” value at human TLR7 worked out at 0.1 µM.

Take `Nc1nc2nc3c1nc(O)n3Cc1ccccc1OCCCCO2` [Compound 76]: the minimal effective concentration in data set [2] turned out to be 0.064 µM. At human TLR7, the “HEK293 TLR7-NFκB-luc (LEC; μM)” value worked out at 0.12 µM.

Take `Nc1nc2nc3c1nc(O)n3Cc1ccccc1OC/C=C\CO2` [Compound 77]: the minimal effective concentration in data set [2] was 0.1 µM. For the same compound, on human TLR7, the “HEK293 TLR7-NFκB-luc (LEC; μM)” value came out at 0.53 µM.

Take `Nc1nc2nc3c1ncn3Cc1ncccc1OC/C=C/CCO2` [Compound 78]: the minimal effective concentration in data set [2] was > 25 µM. In addition, the “HEK293 TLR7-NFκB-luc (LEC; μM)” value on human TLR7 amounted to 9.68 µM.

As to `Nc1nc2nc3c1ncn3Cc1ncccc1OC/C=C\CCO2` [Compound 79], the minimal effective concentration in data set [2] came out at 1.78 µM. Besides, on human TLR7, the “HEK293 TLR7-NFκB-luc (LEC; μM)” value is 2.34 µM.

With `Nc1nc2nc3c1nc(O)n3Cc1cccc(c1)OCC(=O)NCCCO2` [Compound 80], the minimal effective concentration in data set [2] amounted to 0.087 µM. In addition, the “HEK293 TLR7-NFκB-luc (LEC; μM)” value at human TLR7 amounted to 0.041 µM.

On to `Nc1nc2nc3c1nc(O)n3Cc1ccc(cc1)OC/C=C/CCCO2` [Compound 81], for which the minimal effective concentration in data set [2] was found to be 0.63 µM. Besides, the “HEK293 TLR7-NFκB-luc (LEC; μM)” value at human TLR7 was 4.59 µM.

Take `Nc1nc2nc3c1nc(O)n3CCc1cccc(c1)CCCCCO2` [Compound 83]: the minimal effective concentration in data set [2] turned out to be 2.66 µM. Besides, the “HEK293 TLR7-NFκB-luc (LEC; μM)” value on human TLR7 is >25 µM.

Turning to `Nc1nc2nc3c1nc(O)n3CCc1cccc(c1)OC/C=C\CO2` [Compound 84], the minimal effective concentration in data set [2] is 0.51 µM. Moreover, on human TLR7, the “HEK293 TLR7-NFκB-luc (LEC; μM)” value was 3.4 µM.

Regarding `CN1CCOC(=O)Cc2cccc(c2)Cn2c(O)nc3c(N)nc1nc32` [Compound 85], in data set [2], the minimal effective concentration came to 12.5 µM. The “HEK293 TLR7-NFκB-luc (LEC; μM)” value on human TLR7 turned out to be 0.33 µM.

With `Nc1nc2nc3c1nc(O)n3CCc1cccc(c1)OC/C=C/CCO2` [Compound 86], the minimal effective concentration in data set [2] turned out to be 2.43 µM. Besides, on human TLR7, the “HEK293 TLR7-NFκB-luc (LEC; μM)” value is 7.91 µM.

Source of the values: US10822349B2, “Macrocyclic purines for the treatment of viral infections” (JANSSEN SCIENCES IRELAND UNLIMITED COMPANY, priority 2012, dated 2020).
